Our source for the EC50 values is patent publication US20040034019A1, “Piperazine and piperidine derivatives” (priority 2002, published 2004).

The assay concerns rat embryo ventral mesencephalic cells. The assay is described as follows: Neuroprotection assay (NMDA neuroexcitotoxic injury, high affinity 3H-dopamine uptake). It is filed as cell-based, Sprague-Dawley rat. The conditions noted are these: embryonic day 15 rat VM cell culture, NMDA (100-400 μM) for 20 hours. From the text:
The neuroprotective activity of the compounds of this invention may be assayed using rat embryo ventral mesencephalic cells in culture which are subsequently exposed to the glutamate receptor agonist NMDA. This assay is described in detail in the example section.
The ventral mesencephalic region was dissected out of embryonic day 15 Sprague-Dawley rat embryos (Harlan), dissociated into single cell suspension by a combination of trypsinization and trituration (Costantini et al., Neurobiol Dis., pp. 97-106 (1998). Dissociated VM cells were plated into poly-L-ornithine-coated 96-well plates at a density of 85,000 cells/well in 100 uL of DMEM supplemented with 18% heat-inactivated horse serum, 0.24% glucose, 2 mM glutamine and 50 u/ml penicillin/streptomycin and incubated in a 5% CO2 incubator. After one day in culture (DIV1), the medium was replaced with 100 μL of a defined medium (DMEM supplemented with 1× N2 cocktail (Gibco-BRL), 0.12% glucose, 2 mM glutamine, and 50 units/ml penicillin/streptomycin) containing DMSO or various concentrations of the compounds of this invention. On DIV5, neuroexcitotoxic injury was induced by the addition of various concentrations of the glutamate receptor agonist NMDA (100-400 μM). Cultures were incubated with the neurotoxin for 20 hours and the effects of neurophilin compounds were assessed using high affinity ^3H-dopamine uptake according to a procedure published by Park and Mytilineou [Brain Res., 599, pp. 83-97 (1992)].

Each structure is given as a SMILES string. pEC50: −log10 of the molar value.

What is called pEC50 is the negative decadic logarithm of the EC50, by convention in mol/L. As for `O=C([C@@H]1CC[C@H](c2ccccc2)N1Cc1ccccc1)N1CCC(Cc2ccccc2)CC1` [Compound 233], the pEC50 is 6.30 to 7.00. For `CCN1CC=C[C@H]1C(=O)N1CCC(Cc2ccccc2)CC1` [Compound 234], the pEC50 is under 6.30. For the molecule `O=C([C@@H]1[C@H](c2ccccc2)CCN1Cc1ccccc1)N1CCC(Cc2ccccc2)CC1` [Compound 235], the pEC50 is under 6.30. The same measure for `CCN1C[C@H]2C[C@@H]2C1C(=O)N1CCC(Cc2ccccc2)CC1` (stereo partly shown) [Compound 236]: 6.30 to 7.00; for `O=C([C@@H]1C=CCN1Cc1ccccc1)N1CCN(C(c2ccc(F)cc2)c2ccc(F)cc2)CC1` [Compound 237]: under 6.30. Next, `CCN1CC[C@H](C)[C@H]1C(=O)N1CCC(Cc2ccccc2)CC1` [Compound 238]: over 7.00; `O=C(C1[C@H]2C[C@@H]2CN1Cc1ccccc1)N1CCN(C(c2ccc(F)cc2)c2ccc(F)cc2)CC1` (stereo partly shown) [Compound 239]: under 6.30. Next, `CCN1C(C)CC[C@H]1C(=O)N1CCC(Cc2ccccc2)CC1` (stereo partly shown) [Compound 240]: over 7.00; `C[C@H]1CCN(Cc2ccccc2)[C@@H]1C(=O)N1CCN(C(c2ccc(F)cc2)c2ccc(F)cc2)CC1` [Compound 241]: under 6.30; `CCN1CCC[C@]1(C)C(=O)N1CCC(Cc2ccccc2)CC1` [Compound 242]: over 7.00. `CC1CC[C@@H](C(=O)N2CCN(C(c3ccc(F)cc3)c3ccc(F)cc3)CC2)N1Cc1ccccc1` (stereo partly shown) [Compound 243]: the pEC50 was under 6.30. In the case of `CCN1CSC[C@H]1C(=O)N1CCC(Cc2ccccc2)CC1` [Compound 244], the pEC50 was under 6.30. The same measure for `C[C@@]1(C(=O)N2CCN(C(c3ccc(F)cc3)c3ccc(F)cc3)CC2)CCCN1Cc1ccccc1` [Compound 245]: 6.30 to 7.00; for `CCN1[C@@H](C(=O)N2CCC(Cc3ccccc3)CC2)CC[C@H]1c1ccccc1` [Compound 246]: over 7.00; for `O=C([C@H]1CC[C@@H](c2ccccc2)N1Cc1ccccc1)N1CCN(C(c2ccc(F)cc2)c2ccc(F)cc2)CC1` [Compound 247]: under 6.30. Next, `CCN1[C@@H](c2ccccc2)CC[C@H]1C(=O)N1CCC(Cc2ccccc2)CC1` [Compound 248]: 6.30 to 7.00; `O=C([C@@H]1CC[C@H](c2ccccc2)N1Cc1ccccc1)N1CCN(C(c2ccc(F)cc2)c2ccc(F)cc2)CC1` [Compound 249]: under 6.30. Regarding `CCN1CC(c2ccccc2)C[C@H]1C(=O)N1CCC(Cc2ccccc2)CC1` (stereo partly shown) [Compound 250], the pEC50 is under 6.30.

Take `O=C([C@@H]1C[C@@H](c2ccccc2)CN1Cc1ccccc1)N1CCN(C(c2ccc(F)cc2)c2ccc(F)cc2)CC1` [Compound 251]: the pEC50 was under 6.30. Next, `CCN1CC[C@@H](c2ccccc2)[C@H]1C(=O)N1CCC(Cc2ccccc2)CC1` [Compound 252]: under 6.30. Next, `O=C([C@@H]1[C@H](c2ccccc2)CCN1Cc1ccccc1)N1CCN(C(c2ccc(F)cc2)c2ccc(F)cc2)CC1` [Compound 253]: under 6.30. Turning to `CCN1CC[C@H]1C(=O)N1CCN(C(c2ccc(F)cc2)c2ccc(F)cc2)CC1` [Compound 254], the pEC50 was 6.30 to 7.00. Regarding `CCN1CCC[C@H]1C(=O)N1CCC(Cc2ccc(F)cc2)CC1` [Compound 259], the pEC50 was 6.30 to 7.00.

Regarding `C=CCN1CCC[C@H]1C(=O)N1CCC(Cc2ccc(F)cc2)CC1` [Compound 263], the pEC50 was over 7.00.

On to `CC(C)=CCN1CCC[C@H]1C(=O)N1CCC(Cc2ccc(F)cc2)CC1` [Compound 265], for which the pEC50 was over 7.00. As to `O=C([C@@H]1CCCN1CC1CC1)N1CCC(Cc2ccc(F)cc2)CC1` [Compound 267], the pEC50 is over 7.00.

In the case of `O=C([C@@H]1CCCN1C/C=C/c1ccccc1)N1CCC(Cc2ccc(F)cc2)CC1` [Compound 269], the pEC50 is 6.30 to 7.00. Next, `O=C([C@@H]1CCCN1Cc1ccc(F)cc1)N1CCC(Cc2ccc(F)cc2)CC1` [Compound 271]: over 7.00. Take `O=C(C1CCN(Cc2ccccc2)CC1)N1CCC(Cc2ccc(F)cc2)CC1` [Compound 272]: the pEC50 is 6.30 to 7.00. For `O=C([C@@H]1CCCN1CCc1ccccc1)N1CCC(Cc2ccc(F)cc2)CC1` [Compound 273], the pEC50 was over 7.00. Turning to `Cc1ccc(CN2CCC[C@H]2C(=O)N2CCC(Cc3ccc(F)cc3)CC2)cc1` [Compound 275], the pEC50 was over 7.00. For `O=C([C@@H]1CCCN1Cc1ccc(F)c(F)c1)N1CCC(Cc2ccc(F)cc2)CC1` [Compound 277], the pEC50 was over 7.00. The same measure for `O=C(C1CCN(CC2CC2)CC1)N1CCC(Cc2ccc(F)cc2)CC1` [Compound 278]: over 7.00; for `O=C([C@@H]1CCCN1Cc1cccc(F)c1)N1CCC(Cc2ccc(F)cc2)CC1` [Compound 279]: over 7.00.
